Reference: US10413502B2, “Cosmetic use of a peppermint extract” (LVMH RECHERCHE, priority 2015, dated 2019)

Tested on: gap junctions between keratinocytes
Test: Transfer of the dye lucifer yellow between keratinocytes via gap junctions
Type: cell-based
Conditions: substance alone

## C[C@H](NC(=O)Cc1cc(F)cc(F)c1)C(=O)N[C@H](C(=O)OC(C)(C)C)c1ccccc1 [DAPT, N—[N-(3,5-difluorophenacetyl)-L-alanyl]-S-phenylglycine t-butyl ester]
  diffusion of lucifer yellow between keratinocytes (exchanges via gap junctions): greatly reduced
